These results are taken from US11298363B2, “Triazolobenzazepines as vasopressin V1a receptor antagonists” (RICHTER GEDEON NYRT., priority 2017, dated 2022).

Structures can show the parent of a compound that is named as a salt.

For assay [1], the target named is T1, human vasopressin V1a receptor (Homo sapiens, UniProt P37288). The assay can be described thus: Human vasopressin V1a receptor binding assay. To be noted: 1321N1 cell membranes, [3H]vasopressin; read-out: Ki (nM) on hV1a cell line. In a few lines: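 Radioligand competition on membranes from cells expressing human V1a receptor; incubation 60 minutes at 27° C., non-specific binding with 1.2×10^−6 M unlabeled (Arg^8)-vasopressin, filtration separation. Ki by Cheng-Prusoff using Scatchard-derived KD, from at least two independent experiments.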
T1 sequence (P37288 whole entry): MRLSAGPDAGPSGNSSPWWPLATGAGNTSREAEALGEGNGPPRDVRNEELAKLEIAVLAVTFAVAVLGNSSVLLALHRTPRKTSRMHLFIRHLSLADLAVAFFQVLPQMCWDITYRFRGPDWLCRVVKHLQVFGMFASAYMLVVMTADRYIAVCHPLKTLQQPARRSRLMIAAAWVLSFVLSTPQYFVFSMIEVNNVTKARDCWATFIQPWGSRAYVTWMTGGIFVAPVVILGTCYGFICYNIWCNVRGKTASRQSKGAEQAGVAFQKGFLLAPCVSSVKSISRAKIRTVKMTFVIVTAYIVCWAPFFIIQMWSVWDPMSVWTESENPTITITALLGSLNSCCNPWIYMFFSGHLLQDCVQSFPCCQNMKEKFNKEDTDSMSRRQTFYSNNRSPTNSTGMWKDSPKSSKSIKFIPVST

Assay [2] has as its target T1, human vasopressin V1a receptor. Kind of assay: Functional assay on human vasopressin V1a receptor expressing cell line (intracellular Ca2+ fluorescence). It is filed as cell-based. To be noted: 1321N1 cells, (Arg8)-vasopressin at EC80; read-out: IC50 (nM) on hV1a cell line.

Take `COC1Cc2cc(Cl)ccc2-n2c(nnc2[C@H]2CC[C@](OC)(C(F)(F)F)CC2)C1` (stereo partly drawn) [Example 222, 8-chloro-5-methoxy-1-[cis-4-methoxy-4-(trifluoromethyl)cyclohexyl]-5,6-dihydro-4H-[1,2,4]triazolo[4,3-a][1]benzazepine]: the Ki in assay [1] turned out to be 5.8 nM. Moreover, the IC50 in assay [2] was determined as 40 nM.

Consider `OC1Cc2cc(F)ccc2-n2c(nnc2[C@H]2CC[C@H](Oc3ccccn3)CC2)C1` (stereo partly drawn) [Example 111, 8-fluoro-1-[trans-4-(pyridin-2-yloxy)cyclohexyl]-5,6-dihydro-4H-[1,2,4]triazolo[4,3-a][1]benzazepin-5-ol], for which the Ki in assay [1] was determined as 0.3 nM. Also, the IC50 in assay [2] was 2.4 nM.

In the case of `CC(C)N1CC[C@]2(CC[C@@H](c3nnc4n3-c3ccc(Cl)cc3CC3(C4)OCCO3)CC2)C1=O` [Example 115], in assay [1], the inhibition constant (Ki) is 0.5 nM. Besides, the IC50 in assay [2] came out at 0.8 nM.

On to `Clc1ccc2c(c1)CC1(Cc3nnc(N4CCN(c5ccccn5)CC4)n3-2)OCCO1` [Example 171, 8′-chloro-1′-[4-(pyridin-2-yl)piperazin-1-yl]-4′H,6′H-spiro[1,3-dioxolane-2,5′-[1,2,4]triazolo[4,3-a][1]benzazepine]], for which the Ki in assay [1] is 0.6 nM. Besides, the IC50 in assay [2] is 1.2 nM.

Take `COC1Cc2cc(Cl)ccc2-n2c(nnc2[C@H]2CC[C@H](C(=O)N3CCN(C)CC3)CC2)C1` (stereo partly drawn) [Example 166, [Trans-4-(8-chloro-5-methoxy-5,6-dihydro-4H-[1,2,4]triazolo[4,3-a][1]benzazepin-1-yl)cyclohexyl](4-methylpiperazin-1-yl)methanone]: in assay [1], the Ki was determined as 6.2 nM. The IC50 in assay [2] was found to be 169 nM.

In the case of `COC1Cc2cc(Cl)ccc2-n2c(nnc2C2CCN([C@@H]3CCOC3)CC2)C1` (stereo partly drawn) [Example 178, 8-chloro-5-methoxy-1-{1-[(3R)-tetrahydrofuran-3-yl]piperidin-4-yl}-5,6-dihydro-4H-[1,2,4]triazolo[4,3-a][1]benzazepine], the Ki in assay [1] was determined as 3.9 nM. In addition, in assay [2], the IC50 amounted to 19 nM.

`Clc1ccc2c(c1)CC1(Cc3nnc([C@@H]4CCN(Cc5cccnc5)C4)n3-2)OCCO1` [Example 250, 8′-chloro-1′-[(3R)-1-(pyridin-3-ylmethyl)pyrrolidin-3-yl]-4′H, 6′H-spiro[1,3-dioxolane-2,5′-[1,2,4]triazolo[4,3-a][1]benzazepine]]: the Ki in assay [1] amounted to 2.9 nM. Also, in assay [2], the IC50 stood at 27 nM.

As to `Clc1ccc2c(c1)CC(NC1COC1)Cc1nnc([C@H]3CC[C@H](Oc4ccccn4)CC3)n1-2` (stereo partly drawn) [Example 28, 8-chloro-N-(oxetan-3-yl)-1[trans-4-(pyridin-2-yloxy)cyclohexyl]-5,6-dihydro-4H-[1,2,4]triazolo[4,3-a][1]benzazepine-5-amine], in assay [1], the Ki was 0.7 nM. For the same compound, in assay [2], the IC50 is 5.4 nM.

Consider `O=C1Cc2cc(Cl)ccc2-n2c(nnc2[C@H]2CC[C@H](C(F)(F)F)CC2)C1` [Example 71, 8-chloro-1-[trans-4-(trifluoromethyl)cyclohexyl]-4H-[1,2,4]triazolo[4,3-a][1]benzazepin-5(6H)-one], for which the Ki in assay [1] was determined as 14 nM. Moreover, the IC50 in assay [2] was found to be 22 nM.

Turning to `CN([C@H]1Cc2cc(Cl)ccc2-n2c(nnc2[C@H]2CC[C@H](Oc3ccccn3)CC2)C1)S(C)(=O)=O` [Example 76, N-{(5S)-8-chloro-1-[trans-4-(pyridin-2-yloxy)cyclohexyl]-5,6-dihydro-4H-[1,2,4]triazolo[4,3-a][1]benzazepin-5-yl}-N-methylmethanesulfonamide], the Ki in assay [1] came out at 1.1 nM. The IC50 in assay [2] was 2.2 nM.

As to `CN(C)C1Cc2cc(Cl)ccc2-n2c(nnc2N2CCC3(CC2)OCc2ccccc23)C1` (centres unmarked) [Example 163], in assay [1], the Ki stood at 1 nM. Also, the IC50 in assay [2] was 6.2 nM.

With `C#CCOC1Cc2cc(Cl)ccc2-n2c(nnc2[C@H]2CC[C@H](Oc3ccccn3)CC2)C1` (stereo partly drawn) [Example 211, 8-chloro-5-(prop-2-yn-1-yloxy)-1-[trans-4-(pyridin-2-yloxy)cyclohexyl]-5,6-dihydro-4H-[1,2,4]triazolo[4,3-a][1]benzazepine], the inhibition constant (Ki) in assay [1] amounted to 0.7 nM. For the same compound, the IC50 in assay [2] worked out at 1.3 nM.

As for `CC(C)N1CC[C@]2(CC[C@H](c3nnc4n3-c3ccc(Cl)cc3CC3(C4)OCCO3)CC2)C1=O` [Example 129, (5s,8s)-8-(8′-chloro-4′H,6′H-spiro[1,3-dioxolane-2,5-[1,2,4]triazolo[4,3-a][1]benzazepin]-1′-yl)-2-(propan-2-yl)-2-azaspiro[4.5]decan-1-one], in assay [1], the Ki came to 0.5 nM. Further, in assay [2], the IC50 was determined as 20 nM.

Regarding `COC(=O)[C@H]1CC[C@H](c2nnc3n2-c2ccc(Br)cc2CC(=O)C3)CC1` [Example 86, methyl trans-4-(8-bromo-5-oxo-5,6-dihydro-4H-[1,2,4]triazolo[4,3-a][1]benzazepin-1-yl)cyclohexane carboxylate], in assay [1], the Ki came out at 2.2 nM. The IC50 in assay [2] was 12 nM.

As for `COC1(C)CCC(c2nnc3n2-c2ccc(Cl)cc2CC(NC(C)C)C3)CC1` (mixture of isomers) [Example 203, 8-chloro-1-(4-methoxy-4-methylcyclohexyl)-N-(propan-2-yl)-5,6-dihydro-4H-[1,2,4]triazolo[4,3-a][1]benzazepin-5-amine], the inhibition constant Ki in assay [1] was 10.1 nM. Besides, the IC50 in assay [2] is 210 nM.

Regarding `CN(C)[C@H]1Cc2cc(Cl)ccc2-n2c(nnc2[C@H]2CC[C@H](Oc3ccccn3)CC2)C1` [Example 67], in assay [1], the Ki was determined as 0.6 nM. Moreover, the IC50 in assay [2] was 2.3 nM.

`CN(C)CC(=O)NC1Cc2cc(Cl)ccc2-n2c(nnc2[C@H]2CC[C@H](Oc3ccccn3)CC2)C1` (stereo partly drawn) [Example 17, N-{8-chloro-1-[trans-4-(pyridin-2-yloxy)cyclohexyl]-5,6-dihydro-4H-[1,2,4]triazolo[4,3-a][1]benzazepin-5-yl}-N^2,N^2-dimethylglycinamide]: the Ki in assay [1] was 2.1 nM. Moreover, the IC50 in assay [2] was 35 nM.

`O=C1Cc2cc(Br)ccc2-n2c(nnc2[C@H]2CC[C@H](C(=O)N3CCCCC3)CC2)C1` [Example 87, 8-bromo-1-[trans-4-(piperidin-1-ylcarbonyl)cyclohexyl]-4H-[1,2,4]triazolo[4,3-a][1]benzazepin-5(6H)-one]: in assay [1], the Ki stood at 2.5 nM. The IC50 in assay [2] amounted to 57 nM.

Turning to `CC(C)(C)CN[C@H]1Cc2cc(Cl)ccc2-n2c(nnc2[C@H]2CC[C@H](Oc3ccccn3)CC2)C1` [Example 165, (5S)-8-chloro-N-(2,2-dimethylpropyl)-1-[trans-4-(pyridin-2-yloxy)cyclohexyl]-5,6-dihydro-4H-[1,2,4]triazolo[4,3-a][1]benzazepin-5-amine], the Ki in assay [1] came out at 1.5 nM. Moreover, in assay [2], the IC50 came to 21 nM.

Consider `FC(F)(F)[C@H]1CC[C@H](c2nnc3n2-c2ccc(Br)cc2CC2(C3)OCCO2)CC1` [Example 81, 8′-bromo-1′-[trans-4-(trifluoromethyl)cyclohexyl]-4′H,6′H-spiro[1,3-dioxolane-2,5′-[1,2,4]triazolo[4,3-a][1]benzazepine]], for which the Ki in assay [1] was determined as 0.2 nM. Besides, the IC50 in assay [2] is 1.4 nM.

As for `COc1ccc2c(c1)CC(N)Cc1nnc([C@H]3CC[C@H](Oc4ccccn4)CC3)n1-2` (stereo partly drawn) [Example 31, 8-methoxy-1-[trans-4-(pyridin-2-yloxy)cyclohexyl]-5,6-dihydro-4H-[1,2,4]triazolo[4,3-a][1]benzazepine-5-amine hydrochloride], the Ki in assay [1] was 17 nM. For the same compound, the IC50 in assay [2] came to 260 nM.

For `CC(C)[C@@H](N)C(=O)N[C@@H]1Cc2cc(Cl)ccc2-n2c(nnc2[C@H]2CC[C@H](Oc3ccccn3)CC2)C1` [Example 141, N-{(5R)-8-chloro-1-[trans-4-(pyridin-2-yloxy)cyclohexyl]-5,6-dihydro-4H-[1,2,4]triazolo[4,3-a][1]benzazepin-5-yl}-D-valinamide], the inhibitory constant (Ki) in assay [1] stood at 0.7 nM. Moreover, in assay [2], the IC50 was 8.9 nM.

With `CC1(C(=O)N[C@H]2Cc3cc(Cl)ccc3-n3c(nnc3[C@H]3CC[C@H](Oc4ccccn4)CC3)C2)COC1` [Example 225], the Ki in assay [1] amounted to 48 nM. Also, the IC50 in assay [2] worked out at 854 nM.

For `OC1Cc2cc(Cl)ccc2-n2c(nnc2N2CCC(c3ncccc3Cl)CC2)C1` (centres unmarked) [Example 173, 8-chloro-1-[4-(3-chloropyridin-2-yl)piperidin-1-yl]-5,6-dihydro-4H-[1,2,4]triazolo[4,3-a][1]benzazepin-5-ol], the Ki in assay [1] came to 1.6 nM. Moreover, the IC50 in assay [2] was determined as 11 nM.

With `CN(C)C1Cc2cc(Cl)ccc2-n2c(nnc2[C@H]2CC[C@H](Oc3ccccn3)CC2)C1` (stereo partly drawn) [Example 22, 8-chloro-N,N-dimethyl-1-[trans-4-(pyridin-2-yloxy)cyclohexyl]-5,6-dihydro-4H-[1,2,4]triazolo[4,3-a][1]benzazepine-5-amine], the Ki in assay [1] amounted to 0.5 nM. Further, the IC50 in assay [2] turned out to be 2.8 nM.

With `CO[C@]1(C(F)(F)F)CC[C@H](c2nnc3n2-c2ccc(Cl)cc2CC2(C3)OCCO2)CC1` [Example 236, 8′-chloro-1′-[cis-4-methoxy-4-(trifluoromethyl)cyclohexyl]-4′H,6′H-spiro[1,3-dioxolane-2,5′-[1,2,4]triazolo[4,3-a][1]benzazepine]], the Ki in assay [1] was 0.9 nM. For the same compound, the IC50 in assay [2] came out at 4.2 nM.

Consider `COc1ccc(CN[C@H]2CC[C@H](c3nnc4n3-c3ccc(Cl)cc3CC3(C4)OCCO3)CC2)cc1` [Example 227, Trans-4-(8′-chloro-4′H,6′H-spiro[1,3-dioxolane-2,5′-[1,2,4]triazolo[4,3-a][1]benzazepin]-1′-yl)-N-(4-methoxybenzyl)cyclohexanamine], for which the Ki in assay [1] was 1 nM. In addition, the IC50 in assay [2] came to 51 nM.

Take `FC(F)(F)CN[C@H]1Cc2cc(Cl)ccc2-n2c(nnc2[C@H]2CC[C@H](Oc3ccccn3)CC2)C1` [Example 224, (5S)-8-chloro-1-[trans-4-(pyridin-2-yloxy)cyclohexyl]-N-(2,2,2-trifluoroethyl)-5,6-dihydro-4H-[1,2,4]triazolo[4,3-a][1]benzazepin-5-amine]: the Ki in assay [1] came to 0.7 nM. The IC50 in assay [2] was found to be 3.6 nM.

A word on the Ki: it is the dissociation constant of the complex between target and ligand, obtained from inhibition or displacement. Broadly, the IC50 is the midpoint of a concentration-inhibition curve.
